Measured values: patent US7205382B2, “Peptides, the production and use thereof for binding immunoglobulins” (Fresenius Medical Care Affina GmbH, priority 2000, dated 2007)
Bridge positions count the residues as written; N and C are the ends. Square brackets hold non-standard residues; d marks the D form. Ends that are not written are not given here. cellulose = not defined here; βAla = NCCC(=O)O

Columns and labels:
Format in all cases: binding
Design in all cases: key: No binding of immunoglobulin for the defined peptide variant, detection negative: 0; Binding of immunoglobulin for the defined peptide variant, detection positive: +
serum albumin = test: Cellulose-immobilized 13-mer peptide variants incubated with serum albumin (negative control), anti-human IgG-AP detection; details: blocking buffer without addition, 3 h room temperature
Description: (§1) Peptides consisting of 13 amino acids were synthesized by solid phase synthesis (Houghten, 1985) on a cellulose matrix with (βA)(βA) as a spacer group.
(§2) The immobilized peptides were tested for their immunoglobulin binding capability by incubation with human IgG-Fc in a buffered solution and by incubation with human plasma.
(§3) Thus, the peptide variants immobilized on solid phases were washed with T-TBS buffer (136 mM NaCl, 1.6 mM KCl, 0.05% (v/v) Tween 20, 50 mM Tris-HCl, pH 8.0) and subsequently treated with blocking buffers (5% (w/v) saccharose, 4% (w/v) bovine serum albumin in T-TBS). Incubation of the immobilized peptides with IgG-Fc (1 μg/ml) in blocking buffer and human serum (diluted 1:10,000 in blocking buffer) was effected for 3 h at room temperature. For checking the specificity of the binding, buffered serum albumin solution (blocking buffer) without addition was included as a control. Thereafter, the peptide variants immobilized on the solid phases were washed three more times with T-TBS buffer.
(§4) After incubation with alkaline phosphatase-conjugated anti-human IgG antibody (1.2 μg/ml) in blocking buffer, detection of the immunoglobulin binding was effected by means of NBT (nitroblue tetrazolium chloride)/BCIP (5-bromo-4-chloro-3-indolyl phosphate toluidine salt) as a substrate (200 μl of parent solution (18.75 mg/ml NBT and 9.4 mg/ml BCIP in 67% (v/v) DMSO) in 10 ml developing buffer (100 mM Tris-HCl, 100 mM NaCl, 5 mM MgCl2, pH 9.5)).

[1] = system: immunoglobulins in human plasma; test: Cellulose-immobilized 13-mer peptide variants incubated with human plasma, anti-human IgG-AP detection; details: human plasma as sample, diluted 1:10,000 in blocking buffer, 3 h room temperature
Description: as §1, §2, §3, §4

human IgG-Fc = test: Cellulose-immobilized 13-mer peptide variants incubated with human IgG-Fc, anti-human IgG-AP detection; details: IgG-Fc 1 μg/ml in blocking buffer, 3 h room temperature
Description: as §1, §2, §3, §4

Substance	Result for incubation with serum albumin (immunoglobulin binding detection) (serum albumin)	Result for incubation with human plasma (immunoglobulin binding detection) [1]	Result for incubation with human IgG-Fc (immunoglobulin binding detection) (human IgG-Fc)
04T: cellulose-bound 13-mer variant DCATHLGELVWCT-(βA)(βA) (disulfide 2-12 (inferred); not fully specified (N-terminus, C-terminus); printed as DCATHLGELVWCT-(βA)(βA); also: cellulose-bound)	0	+	+
11V: cellulose-bound 13-mer variant DCAWHLGELVVCT-(βA)(βA)	0	0	0
05Q: cellulose-bound 13-mer variant DCAWQLGELVWCT-(βA)(βA) (disulfide 2-12 (inferred); not fully specified (N-terminus, C-terminus); printed as DCAWQLGELVWCT-(βA)(βA); also: cellulose-bound)	0	0	0
07H: cellulose-bound 13-mer variant DCAWHLHELVWCT-(βA)(βA) (DCAWHLHELVWCT-{βAla-βAla-cellulose}; disulfide 2-12 (inferred); not fully specified (N-terminus); printed as DCAWHLHELVWCT-(βA)(βA); reading uncertain)	0	0	0
06R: cellulose-bound 13-mer variant DCAWHRGELVWCT-(βA)(βA) (DCAWHRGELVWCT-{βAla-βAla-cellulose}; disulfide 2-12 (inferred); not fully specified (N-terminus); printed as DCAWHRGELVWCT-(βA)(βA); reading uncertain)	0	+	+
06T: cellulose-bound 13-mer variant DCAWHTGELVWCT-(βA)(βA) (DCAWHTGELVWCT-{βAla-βAla-cellulose}; disulfide 2-12 (inferred); not fully specified (N-terminus); printed as DCAWHTGELVWCT-(βA)(βA); reading uncertain)	0	0	+
11E: cellulose-bound 13-mer variant DCAWHLGELVECT-(βA)(βA) (DCAWHLGELVECT-{βAla-βAla-cellulose}; disulfide 2-12 (inferred); reading uncertain; also: printed as DCAWHLGELVECT-(βA)(βA))	0	0	0
08F: cellulose-bound 13-mer variant DCAWHLGFLVWCT-(βA)(βA) (DCAWHLGFLVWCT-{βAla-βAla-cellulose}; disulfide 2-12 (inferred); not fully specified (N-terminus); printed as DCAWHLGFLVWCT-(βA)(βA); reading uncertain)	0	0	0
07I: cellulose-bound 13-mer variant DCAWHLIELVWCT-(βA)(βA) (DCAWHLIELVWCT-{βAla-βAla-cellulose}; disulfide 2-12 (inferred); not fully specified (N-terminus); printed as DCAWHLIELVWCT-(βA)(βA); reading uncertain)	0	0	0
10L: cellulose-bound 13-mer variant DCAWHLGELLWCT-(βA)(βA) (DCAWHLGELLWCT-{βAla-βAla-cellulose}; disulfide 2-12 (inferred); reading uncertain; also: printed as DCAWHLGELLWCT-(βA)(βA))	0	0	0
02W: cellulose-bound 13-mer variant DWAWHLGELVWCT-(βA)(βA) (DWAWHLGELVWCT[βAla][βAla]; not fully specified; printed as DWAWHLGELVWCT-(βA)(βA); also: cellulose-bound)	0	0	0
06M: cellulose-bound 13-mer variant DCAWHMGELVWCT-(βA)(βA) (DCAWHMGELVWCT-{βAla-βAla-cellulose}; disulfide 2-12 (inferred); not fully specified (N-terminus); printed as DCAWHMGELVWCT-(βA)(βA); reading uncertain)	0	+	+
03F: cellulose-bound 13-mer variant DCFWHLGELVWCT-(βA)(βA) (DCFWHLGELVWCT-{βAla-βAla-cellulose}; disulfide 2-12 (inferred); reading uncertain; also: printed as DCFWHLGELVWCT-(βA)(βA))	0	0	0
05L: cellulose-bound 13-mer variant DCAWLLGELVWCT-(βA)(βA) (disulfide 2-12 (inferred); not fully specified (N-terminus, C-terminus); printed as DCAWLLGELVWCT-(βA)(βA); also: cellulose-bound)	0	0	0
02M: cellulose-bound 13-mer variant DMAWHLGELVWCT-(βA)(βA) (DMAWHLGELVWCT[βAla][βAla]; not fully specified; printed as DMAWHLGELVWCT-(βA)(βA); also: cellulose-bound)	0	0	0
03I: cellulose-bound 13-mer variant DCIWHLGELVWCT-(βA)(βA) (DCIWHLGELVWCT-{βAla-βAla-cellulose}; disulfide 2-12 (inferred); reading uncertain; also: printed as DCIWHLGELVWCT-(βA)(βA))	0	0	0
08I: cellulose-bound 13-mer variant DCAWHLGILVWCT-(βA)(βA) (DCAWHLGILVWCT-{βAla-βAla-cellulose}; disulfide 2-12 (inferred); not fully specified (N-terminus); printed as DCAWHLGILVWCT-(βA)(βA); reading uncertain)	0	0	0
03C: cellulose-bound 13-mer variant DCCWHLGELVWCT-(βA)(βA) (DCCWHLGELVWCT-{βAla-βAla-cellulose}; disulfide (positions not given here); not fully specified; printed as DCCWHLGELVWCT-(βA)(βA); reading uncertain)	0	0	0
05P: cellulose-bound 13-mer variant DCAWPLGELVWCT-(βA)(βA) (disulfide 2-12 (inferred); not fully specified (N-terminus, C-terminus); printed as DCAWPLGELVWCT-(βA)(βA); also: cellulose-bound)	0	0	0
